{
  "source": "patent US20150065470A1",
  "about": "“Steroid Sulfatase Inhibitor Regimen for the Treatment of Endometriosis” (priority 2012, published 2015)",
  "key": {"[1]": {"target": "T1, STS activity in the uterus or in induced lesions (Mus musculus, UniProt P50427)", "T1 construct": "host or cells: mouse uterus or induced endometriosis-like lesions", "T1 sequence (P50427 23-624)": "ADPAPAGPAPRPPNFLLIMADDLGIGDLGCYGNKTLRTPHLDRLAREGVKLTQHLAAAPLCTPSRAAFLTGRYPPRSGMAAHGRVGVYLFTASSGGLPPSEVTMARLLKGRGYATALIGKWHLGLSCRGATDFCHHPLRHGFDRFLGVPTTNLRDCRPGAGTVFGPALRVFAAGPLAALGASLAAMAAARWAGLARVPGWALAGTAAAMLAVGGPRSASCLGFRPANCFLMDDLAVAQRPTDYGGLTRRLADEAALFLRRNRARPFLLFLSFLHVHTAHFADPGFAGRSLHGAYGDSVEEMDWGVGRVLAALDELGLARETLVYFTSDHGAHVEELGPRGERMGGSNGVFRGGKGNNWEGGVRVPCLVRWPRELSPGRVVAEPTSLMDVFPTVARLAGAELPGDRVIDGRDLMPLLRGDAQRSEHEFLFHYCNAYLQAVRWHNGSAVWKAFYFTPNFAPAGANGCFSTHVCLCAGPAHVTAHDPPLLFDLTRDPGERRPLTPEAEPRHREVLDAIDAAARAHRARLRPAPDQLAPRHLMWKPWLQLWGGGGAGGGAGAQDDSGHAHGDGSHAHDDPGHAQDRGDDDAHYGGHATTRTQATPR", "settings": "highest dose (1 mg/kg daily oral, 21 days); cited from earlier work"}, "STS": {"target": "T2, STS (Homo sapiens, UniProt P08842)", "T2 sequence (P08842 22-583)": "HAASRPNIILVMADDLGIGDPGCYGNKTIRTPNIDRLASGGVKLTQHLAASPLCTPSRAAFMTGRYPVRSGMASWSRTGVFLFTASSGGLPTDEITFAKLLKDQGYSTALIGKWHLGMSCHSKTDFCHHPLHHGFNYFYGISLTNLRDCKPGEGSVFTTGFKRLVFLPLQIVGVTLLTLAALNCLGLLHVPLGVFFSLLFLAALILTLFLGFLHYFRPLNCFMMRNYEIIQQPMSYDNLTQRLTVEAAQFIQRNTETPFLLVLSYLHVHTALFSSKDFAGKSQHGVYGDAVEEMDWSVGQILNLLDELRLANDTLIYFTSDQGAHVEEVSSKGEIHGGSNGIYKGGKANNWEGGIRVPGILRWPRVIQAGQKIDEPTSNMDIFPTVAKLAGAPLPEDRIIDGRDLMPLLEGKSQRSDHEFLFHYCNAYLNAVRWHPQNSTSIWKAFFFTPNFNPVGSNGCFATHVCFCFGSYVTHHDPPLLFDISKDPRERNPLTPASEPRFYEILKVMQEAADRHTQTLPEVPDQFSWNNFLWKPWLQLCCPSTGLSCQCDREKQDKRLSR", "settings": "cited from earlier work"}, "E2 (serum estradiol)": {"test_system": "E2 (serum estradiol)", "test": "Serum hormonal profile incl. estradiol concentrations, Example 1", "type": "in vivo, human", "experimental": "Pharmacodynamic properties were investigated by assessment of the STS activity in PBMCs and by measurement of the serum hormonal profile comprising the ratio of E1-S to E1 and DHEA-S to DHEA. […] Hormone profiles were analysed using commercially available ELISA or RIA kits."}, "[2]": {"settings": "multiple dose 0.25 mg weekly x4, Cycle 1"}, "[3]": {"settings": "multiple dose 0.25 mg weekly x4, Cycle 2"}, "[4]": {"settings": "multiple dose 0.25 mg weekly x4, Cycle 3"}, "[5]": {"settings": "multiple dose 1 mg weekly x4, Cycle 1"}, "[6]": {"settings": "multiple dose 1 mg weekly x4, Cycle 2"}, "[7]": {"settings": "multiple dose 1 mg weekly x4, Cycle 3"}, "[8]": {"settings": "multiple dose 4 mg weekly x4, Cycle 1"}, "[9]": {"settings": "multiple dose 4 mg weekly x4, Cycle 2"}, "[10]": {"settings": "multiple dose 4 mg weekly x4, Cycle 3"}},
  "data": [
    {"smiles": "C[C@]12CC[C@@H]3c4ccc(OS(N)(=O)=O)cc4CC[C@H]3[C@@H]1CC[C@@H]2O", "note": "[E2MATE, Estradiol-3-o-sulfamate]", "values": [
      {"measurement": "STS activity inhibition in the uterus or in induced lesions", "setting": "[1]", "result": "≤ 36", "unit": "%"},
      {"measurement": "STS inhibition", "setting": "STS", "result": "active STS inhibitors"},
      {"measurement": "Avg estradiol concentration, Mean", "setting": "E2 (serum estradiol); [2]", "result": 135.7, "unit": "ng/L"},
      {"measurement": "Max estradiol concentration, Mean", "setting": "E2 (serum estradiol); [2]", "result": 305.3, "unit": "ng/L"},
      {"measurement": "Avg estradiol concentration, Mean", "setting": "E2 (serum estradiol); [3]", "result": 116.0, "unit": "ng/L"},
      {"measurement": "Max estradiol concentration, Mean", "setting": "E2 (serum estradiol); [3]", "result": 260.5, "unit": "ng/L"},
      {"measurement": "Avg estradiol concentration, Mean", "setting": "E2 (serum estradiol); [4]", "result": 107.1, "unit": "ng/L"},
      {"measurement": "Max estradiol concentration, Mean", "setting": "E2 (serum estradiol); [4]", "result": 185.4, "unit": "ng/L"},
      {"measurement": "Avg estradiol concentration, Mean", "setting": "E2 (serum estradiol); [5]", "result": 126.0, "unit": "ng/L"},
      {"measurement": "Max estradiol concentration, Mean", "setting": "E2 (serum estradiol); [5]", "result": 278.6, "unit": "ng/L"},
      {"measurement": "Avg estradiol concentration, Mean", "setting": "E2 (serum estradiol); [6]", "result": 109.0, "unit": "ng/L"},
      {"measurement": "Max estradiol concentration, Mean", "setting": "E2 (serum estradiol); [6]", "result": 193.4, "unit": "ng/L"},
      {"measurement": "Avg estradiol concentration, Mean", "setting": "E2 (serum estradiol); [7]", "result": 110.0, "unit": "ng/L"},
      {"measurement": "Max estradiol concentration, Mean", "setting": "E2 (serum estradiol); [7]", "result": 221.6, "unit": "ng/L"},
      {"measurement": "Avg estradiol concentration, Mean", "setting": "E2 (serum estradiol); [8]", "result": 134.8, "unit": "ng/L"},
      {"measurement": "Max estradiol concentration, Mean", "setting": "E2 (serum estradiol); [8]", "result": 317.8, "unit": "ng/L"},
      {"measurement": "Avg estradiol concentration, Mean", "setting": "E2 (serum estradiol); [9]", "result": 100.9, "unit": "ng/L"},
      {"measurement": "Max estradiol concentration, Mean", "setting": "E2 (serum estradiol); [9]", "result": 207.7, "unit": "ng/L"},
      {"measurement": "Avg estradiol concentration, Mean", "setting": "E2 (serum estradiol); [10]", "result": 94.9, "unit": "ng/L"},
      {"measurement": "Max estradiol concentration, Mean", "setting": "E2 (serum estradiol); [10]", "result": 180.9, "unit": "ng/L"},
      {"measurement": "differences in mean concentration-time profiles of E2, P4, LH, FSH, T and D4A compared to placebo", "setting": "E2 (serum estradiol); multiple dose administration", "result": "No clinically relevant dose-related differences"},
      {"measurement": "Avg (weighted average) estradiol concentration, Mean", "setting": "E2 (serum estradiol); single dose 0.25 mg E2MATE", "result": 141.2, "unit": "ng/L"},
      {"measurement": "Max estradiol concentration, Mean", "setting": "E2 (serum estradiol); single dose 0.25 mg E2MATE", "result": 335.1, "unit": "ng/L"},
      {"measurement": "Avg (weighted average) estradiol concentration, Mean", "setting": "E2 (serum estradiol); single dose 1 mg E2MATE", "result": 131.0, "unit": "ng/L"},
      {"measurement": "Max estradiol concentration, Mean", "setting": "E2 (serum estradiol); single dose 1 mg E2MATE", "result": 318.1, "unit": "ng/L"},
      {"measurement": "Avg (weighted average) estradiol concentration, Mean", "setting": "E2 (serum estradiol); single dose 4 mg E2MATE", "result": 113.8, "unit": "ng/L"},
      {"measurement": "Max estradiol concentration, Mean", "setting": "E2 (serum estradiol); single dose 4 mg E2MATE", "result": 275.3, "unit": "ng/L"},
      {"measurement": "Avg (weighted average) estradiol concentration, Mean", "setting": "E2 (serum estradiol); single dose 8 mg E2MATE", "result": 109.3, "unit": "ng/L"},
      {"measurement": "Max estradiol concentration, Mean", "setting": "E2 (serum estradiol); single dose 8 mg E2MATE", "result": 221.1, "unit": "ng/L"},
      {"measurement": "effects on mean concentration-time profiles of E2, P4, LH, FSH, T and D4A compared to placebo", "setting": "E2 (serum estradiol); single dose administration", "result": "No clinically relevant effects"}
    ]}
  ]
}
